Measurements taken from patent US6780397B2, “Biomolecule conjugation strategy using novel water-soluble phosphine-based chelating agents” (Curators of the University of Missouri, priority 1998, dated 2004).

Assay: Stability of —PH2 compounds under storage and reaction conditions
Assay type: physicochemical
Excerpt: As a result of working with the Br(CH2)3 PH2 intermediate, it was recognized that the intermediate was unexpectedly stable under a variety of storage and reaction conditions.
Furthermore, the reactivity of the —PH2 groups in these compounds toward molecules containing a wide spectrum of functional groups (including carboxylic acids, amines, thiols, and proteins) was remarkably low or non-measurable.

Structure (SMILES) | stability to reaction conditions of solid phase peptide synthesis (HBTU, piperidine, solutions in DMF, trifluoroacetic acid wash) | oxidation of —PH2 groups (during SPPS and analysis) | stability profile (wider range of chemical conditions than used with the Br(CH2)3PH2 intermediate) | stability under storage and reaction conditions (variety of solvents, wide pH range and temperature range)
O=C(O)CCCCC(CCSCCCP)SCCCP (stereo not shown) [(PH2)2S2—COOH, H2P(CH2)3SCH2CH2CH((CH2)4COOH)S(CH2)3PH2] | stable | resistant to oxidation | much improved stability profile | 
PCCCBr.[HH] [Br(CH2)3 PH2, 3-bromo-propyl phosphine hydride] |  |  |  | reasonably stable
